Test results from US20120083489A1, “BIS-PYRIDYLPYRIDONES AS MELANIN-CONCENTRATING HORMONE RECEPTOR ANTAGONISTS” (priority 2009, published 2012).

Molecular target: T1, hMCHR1 (Homo sapiens, UniProt Q99705)
T1 construct: expressed in transfected cells; host or cells: HEK293
Test: MCHR1 pIC50 determination FLIPR assay
Format: cell-based
Details: HEK293 cells stably transfected with hMCHR1; MCH challenge at 4xEC50
Description: MCHR1 plC50 Determination FLIPR™Assay: HEK293 cells stably transfected with hMCHR1 were propagated as adherent cultures at 37° C. in a humidified incubator. Cells were split 1:8 at 90% confluency two times per week. New cell stocks were recovered from storage every two months. Cells were plated in black 384-well plates (Greiner) 24 hours prior to assay at 15,000 cells/well in 50 μL DMEM/F12, 10% FBS, 2 mM I-glutamine. Compounds to be profiled were prepared by making a stock solution at 3×10^−3M in 100% DMSO. The stock solutions were serially diluted 1:4 in 100% DMSO using JANUS (PerkinElmer) liquid handling instrument to allow for an 11 point curve in singlicate. At the time of the assay, the media was removed from the cell plate by aspiration, followed by the addition of 20 μL of loading buffer (Calcium 4 Kit, […]). Following 50 min incubation at 37° C., 10 μL of compound was added to the plates via the FLIPR™ instrument (Molecular Dynamics corporation). The plates were incubated at room temperature for 15 minutes along with an MCH peptide agonist challenge plate. On the FLIPR™, a basal response was collected over 10 seconds followed by the addition of 10 μL of MCH challenge concentration at 4×EC50. Data was collected over 4 minutes and subjected to a nonlinear regression analysis curve fitting program to generate plC50s.

T1 sequence (Q99705 whole entry): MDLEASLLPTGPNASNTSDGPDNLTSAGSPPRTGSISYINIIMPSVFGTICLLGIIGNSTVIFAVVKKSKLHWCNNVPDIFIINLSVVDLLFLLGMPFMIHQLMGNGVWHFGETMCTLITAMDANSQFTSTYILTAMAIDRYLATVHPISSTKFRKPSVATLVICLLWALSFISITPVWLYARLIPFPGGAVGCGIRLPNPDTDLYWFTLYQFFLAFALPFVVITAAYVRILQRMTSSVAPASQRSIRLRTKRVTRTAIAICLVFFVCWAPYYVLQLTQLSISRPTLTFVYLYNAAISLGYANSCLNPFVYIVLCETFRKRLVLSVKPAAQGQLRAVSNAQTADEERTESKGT

IC50 [nM]	SMILES
50	CS(=O)(=O)NCCNc1ccc(-n2ccc(OCc3ccc(Cl)cn3)cc2=O)cn1 [Example 20]
90	CCS(=O)(=O)NCCNc1ccc(-n2ccc(OCc3ccc(Cl)cn3)cc2=O)cn1 [Example 27]
25	CCN(CC)CCNc1ccc(-n2ccc(OCc3ccc(Cl)cn3)cc2=O)cn1 [Example 8]
